Molecules are shown by their SMILES. Some results are limits rather than exact numbers.

One data set concerns the target T1, BZω3 receptor (Rattus norvegicus, UniProt P16257).
T1 construct: from tissue; host or cells: rat (Wistar) kidney membrane fraction
Nature of the data set: BZω3 (peripheral) benzodiazepine receptor binding assay, [3H] 4'-chlorodiazepam (Ro 5-4864). The conditions noted are these: rat kidney membrane, [3H] Ro 5-4864 0.5 nM, 150 minutes at 0° C.; read-out: ω3 IC50. The method, then:
Experiment 1: Central (ω1,ω2) and Peripheral (ω3) Benzodiazepine Receptor Binding Assays
BZω1 and BZω2 receptor binding assays and the preparation of receptor membrane fractions therefor were carried out according to the method of Stephens, D. N. et al. [cf., J. Pharmacol. Exp. Ther., 253, 334-343 (1990)], and BZω3 receptor binding assay and the preparation of receptor membrane fraction therefor were done according to the method of Schoemaker, H. [cf, J. Pharmacol. Exp. Ther., 225, 61-69 (1983)] each with slight modification.
Receptor membrane fractions for ω1, ω2 and ω3 were prepared from the cerebellum (ω1), spinal cord (ω2) or kidney (ω3) in 7-8 week old male rats of Wistar strain, respectively, by the procedure described below.
After the cerebellum or spinal cord was homogenized with 20 volumes of ice-cold 50 mM Tris-citrate buffer (pH 7.1), the homogenate was centrifuged for 15 minutes at 40,000 g. The pellet obtained was washed 4 times by the same procedure, and frozen and stored for 24 hours at −60° C. The resulting pellet, after being thawed, washed with the buffer and centrifuged, was suspended in the buffer I for the binding assay (50 mM Tris-HCl buffer containing 120 mM NaCl, 5 mM KCl, 2 mM CaCl2 and 1 mM MgCl2; pH 7.4) and the suspension thus obtained (containing 1 g wet tissue/40 ml) was used for the BZω1 and BZω2receptor binding assays. On the other hand, the kidney was homogenized with 20 volumes of the ice-cold buffer II for the binding assay (50 mM Na-K phosphate buffer containing 100 mM NaCl; pH 7.4), and the mixture was filtered through 4 sheets of gauze, and centrifuged for 20 minutes at 40,000 g. The pellet obtained was suspended in the buffer II and the suspension (containing 1 g wet tissue/100 ml) was used for the binding assay as BZω3 receptor membrane source.
[^3H] Flumazenil (Ro 15-1788) (final concentration: 0.3 nM for ω1, and 1 nM for ω2) and flunitrazepam (final concentration: 10 μM) were used for the BZω1 or BZω2 receptor binding assays as the isotope-labeled and unlabeled ligands, respectively. For the BZω3 receptor binding assay, [^3H] 4′-chlorodiazepam (7-chloro-1,3-dihydro-1-methyl-5-(4-chlorophenyl)-2H-1,4-diazepin-2-one) (Ro 5-4864) (final concentration: 0.5 nM) and diazepam (final concentration: 100 μM) were used as the isotope-labeled and unlabeled ligands, respectively. Incubation was performed for 30 minutes at 37° C. in the BZω1 or BZω2 receptor binding assays, and for 150 minutes at 0° C. in the BZω3 receptor binding assay. The BZω1 or BZω2 receptor binding assays were carried out in the presence of bicuculline (final concentration: 100 μM).
The binding assay was performed by the following procedure. After adding each test compound at certain known concentrations, a [^3H] ligand, and the buffer I or II to each test tube, each assay was started by addition of membrane preparation (total volume of 1 ml). After incubation, the assay was terminated by filtration with suction through a Whatman GF/B glass fiber filter using a cell harvester (Brandel, USA). The filters were rapidly washed 3 times with 5 ml of ice-cold 50 mM Tris-HCl buffer (pH 7.7) for ω1 and ω2, or the buffer II for ω3, and transferred to scintillation vials containing 10 ml liquid scintillation cocktail (ACS-II, Amersham, USA). After being allowed to stand for a specific period, retained radioactivity was counted by a liquid scintillation spectrometer. Specific binding of [^3H] ligands was calculated as the difference between amounts of radioactivity bound in the presence and absence of excess unlabeled ligands. The concentration of the test compounds causing 50% inhibition of specific binding of the [3H] ligand (IC50) was determined by probit analysis.
In the case of `CN(C(=O)Cn1c(=O)n(C)c2nc(-c3ccc(Cl)cc3)ncc21)c1ccccc1` [Example 4], the IC50 – broadly, the concentration that inhibits the measured activity by half – came to 1.6 nM. The same measure, in the same setting: the value for `COc1ccc(-c2ncc3c(n2)n(C)c(=O)n3CC(=O)N(C)c2ccccc2)cc1` [Example 6] was 2 nM; that for `CCN(C(=O)Cn1c(=O)n(C)c2nc(-c3cccc(Cl)c3)ncc21)c1ccccc1` [Example 10] was 1 nM; that for `CCN(C(=O)Cn1c(=O)n(C)c2nc(-c3ccc(OC)cc3)ncc21)c1ccccc1` [Example 13] was 2.9 nM. On the same count and under the same terms, to `CCCN(CCC)C(=O)Cn1c(=O)n(C)c2nc(-c3ccccc3)ncc21` [Example 26] belongs 2.3 nM; to `CCCN(CCC)C(=O)Cn1c(=O)n(C)c2nc(-c3ccc(F)cc3)ncc21` [Example 29], 4.5 nM.

As for `CN(C(=O)Cn1c(=O)n(C)c2nc(-c3cccnc3)ncc21)c1ccccc1` [Example 37], the IC50 is 2.8 nM. On the same count and under the same terms, the value for `CN(Cc1ccccc1)C(=O)Cn1c(=O)n(C)c2nc(-c3ccccc3)ncc21` [Example 48, N-benzyl-8,9-dihydro-9-methyl-N-methyl-8-oxo-2-phenyl-7H-purin-7-acetamide] was 0.68 nM; that for `CN(Cc1ccc(F)cc1)C(=O)Cn1c(=O)n(C)c2nc(-c3ccccc3)ncc21` [Example 69, N-(4-fluorobenzyl)-8,9-dihydro-9-methyl-N-methyl-8-oxo-2-phenyl-7H-purin-7-acetamide] was 0.55 nM. For `CCCN(CCC)C(=O)Cn1c(=O)[nH]c2cnc(-c3ccc(Cl)cc3)nc21` [Example 97, 2-(4-chlorophenyl)-7,8-dihydro-8-oxo-N,N-dipropyl-9H-purin-9-acetamide], the IC50 worked out at 0.35 nM. Take `CCN(Cc1ccccc1)C(=O)Cn1c(=O)n(C)c2cnc(-c3ccccc3)nc21` [Example 146, N-benzyl-N-ethyl-7,8-dihydro-7-methyl-8-oxo-2-phenyl-9H-purin-9-acetamide]: the IC50 came out at 0.85 nM.

Test system in a further data set: not given
Assay: not given
Conditions: not given
Take `CN(C(=O)Cn1c(=O)n(C)c2nc(-c3ccc(Cl)cc3)ncc21)c1ccccc1` [Example 4]: the melting point (in general, the temperature, or range, at which the solid turns liquid) fell in the range of 188 to 190 °C.

For the compound `COc1ccc(-c2ncc3c(n2)n(C)c(=O)n3CC(=O)N(C)c2ccccc2)cc1` [Example 6], the melting point is 176 to 178 °C. The compound `CCn1c(=O)n(CC(=O)N(C)c2ccccc2)c2cnc(-c3ccccc3)nc21` [Example 8] registered a melting point of 160 to 161 °C.

As for `CCN(C(=O)Cn1c(=O)[nH]c2nc(-c3ccccc3)ncc21)c1ccccc1` [Example 9], the melting point lay within 281 to 284 °C. Still for that read-out and setting: the value for `CCN(C(=O)Cn1c(=O)n(C)c2nc(-c3cccc(Cl)c3)ncc21)c1ccccc1` [Example 10] was 195 to 196 °C; that for `CCN(C(=O)Cn1c(=O)n(C)c2nc(-c3ccc(Cl)cc3)ncc21)c1ccccc1` [Example 11] was 174 to 175 °C; that for `CCN(C(=O)Cn1c(=O)n(C)c2nc(-c3ccc(OC)cc3)ncc21)c1ccccc1` [Example 13] was 179 to 181 °C. `CCN(C(=O)Cn1c(=O)n(CC)c2nc(-c3ccccc3)ncc21)c1ccccc1` [Example 16] displayed a melting point of 165 to 167 °C. On the same count and under the same terms, to `CCCn1c(=O)n(CC(=O)N(CC)c2ccccc2)c2cnc(-c3ccccc3)nc21` [Example 17] belongs 138 to 139 °C; to `CCN(CC)C(=O)Cn1c(=O)n(C)c2nc(-c3ccccc3)ncc21` [Example 19], 207 to 209 °C; to `CCN(CC)C(=O)Cn1c(=O)n(CC)c2nc(-c3ccccc3)ncc21` [Example 25], 148 to 150 °C. In turn, `CCCN(CCC)C(=O)Cn1c(=O)n(C)c2nc(-c3ccccc3)ncc21` [Example 26] gave a melting point of 133 to 134 °C.

`CCCN(CCC)C(=O)Cn1c(=O)n(C)c2nc(-c3ccc(F)cc3)ncc21` [Example 29] yielded a melting point of 154 to 155 °C. Same read-out and setting: to `CCCN(CCC)C(=O)Cn1c(=O)n(CC)c2nc(-c3ccccc3)ncc21` [Example 33] belongs 134 to 135 °C; to `CCCN(CC)C(=O)Cn1c(=O)n(C)c2nc(-c3ccccc3)ncc21` [Example 34], 150 to 151 °C. Same read-out and setting: the value for `CN(C)C(=O)Cn1c(=O)n(C)c2nc(-c3ccccc3)ncc21` [Example 35] was 204 to 206 °C; that for `CN(C(=O)Cn1c(=O)n(C)c2nc(-c3cccnc3)ncc21)c1ccccc1` [Example 37] was 209 to 211 °C; that for `CCN(C(=O)Cn1c(=O)n(C)c2nc(-c3cccnc3)ncc21)c1ccccc1` [Example 38] was 195 to 196 °C.

In the case of `CCN(C(=O)Cn1c(=O)n(C)c2nc(-c3ccccc3)nc(-c3ccccc3)c21)c1ccccc1` [Example 41], the melting point is 185 to 187 °C. Same read-out and setting: to `CCCN(C(=O)Cn1c(=O)n(C)c2nc(-c3ccccc3)ncc21)c1ccccc1` [Example 60] belongs 221 to 223 °C; to `CCCN(C(=O)Cn1c(=O)n(CC)c2nc(-c3ccccc3)ncc21)c1ccccc1` [Example 61], 168 to 170 °C.

In turn, `CCCCN(C(=O)Cn1c(=O)n(C)c2nc(-c3ccccc3)ncc21)c1ccccc1` [Example 62] yielded a melting point of 207 to 209 °C. On the same count and under the same terms, the value for `CCCCN(CCCC)C(=O)Cn1c(=O)n(C)c2nc(-c3ccccc3)ncc21` [Example 63] was 138 to 139 °C; that for `CCN(Cc1ccc(Cl)cc1)C(=O)Cn1c(=O)n(C)c2nc(-c3ccccc3)ncc21` [Example 77] was 198 to 199 °C; that for `CN(C(=O)Cn1c(=O)[nH]c2cnc(-c3cccnc3)nc21)c1ccccc1` [Example 84] was 268 to 270 °C. The same measure, in the same setting: to `CCN(CC)C(=O)Cn1c(=O)[nH]c2cnc(-c3ccccc3)nc21` [Example 85] belongs 222 to 224 °C. Still for that read-out and setting: the value for `CN(C)C(=O)Cn1c(=O)[nH]c2cnc(-c3ccccc3)nc21` [Example 86] was over 300 °C.

In turn, `CCCCN(CCCC)C(=O)Cn1c(=O)[nH]c2cnc(-c3ccccc3)nc21` [Example 95] showed a melting point of 196 to 198 °C.

With `CCCN(C(=O)Cn1c(=O)[nH]c2cnc(-c3ccccc3)nc21)c1ccccc1` [Example 96], the melting point was in the range of 258 to 260 °C. Same read-out and setting: the value for `CN(C(=O)Cn1c(=O)[nH]c2cnc(-c3ccccc3)nc21)c1ccccc1` [Example 98] was 286 to 287 °C; that for `CCCN(CCC)C(=O)Cn1c(=O)n(CCC)c2cnc(-c3ccccc3)nc21` [Example 120] was 125 to 127 °C.

`CCCCn1c(=O)n(CC(=O)N(CCC)CCC)c2nc(-c3ccccc3)ncc21` [Example 122] had a melting point of 129 to 130 °C. Same read-out and setting: the value for `CCN(CC)C(=O)Cn1c(=O)n(C)c2cnc(-c3ccccc3)nc21` [Example 124] was 204 to 206 °C; that for `CCN(CC)C(=O)Cn1c(=O)n(CC)c2cnc(-c3ccccc3)nc21` [Example 125] was 198 to 200 °C; that for `CCCn1c(=O)n(CC(=O)N(CC)CC)c2nc(-c3ccccc3)ncc21` [Example 126] was 141 to 143 °C. Still for that read-out and setting: the value for `CN(C)C(=O)Cn1c(=O)n(C)c2cnc(-c3ccccc3)nc21` [Example 127] was 262 to 264 °C. On the same count and under the same terms, to `CCn1c(=O)n(CC(=O)N(C)C)c2nc(-c3ccccc3)ncc21` [Example 128] belongs 187 to 189 °C.

In the case of `CCCCN(CCCC)C(=O)Cn1c(=O)n(C)c2cnc(-c3ccccc3)nc21` [Example 134], the melting point fell in the range of 192 to 193 °C. On the same count and under the same terms, to `CCCCN(CCCC)C(=O)Cn1c(=O)n(CC)c2cnc(-c3ccccc3)nc21` [Example 135] belongs 135 to 136 °C; to `CCCn1c(=O)n(CC(=O)N(C)c2ccccc2)c2nc(-c3ccccc3)ncc21` [Example 158], 183 to 185 °C; to `CCN(C(=O)Cn1c(=O)n(CC)c2cnc(-c3ccccc3)nc21)c1ccccc1` [Example 167], 154 to 155 °C.

Regarding `CCCn1c(=O)n(CC(=O)N(CC)c2ccccc2)c2nc(-c3ccccc3)ncc21` [Example 168], the melting point lay in the range of 140 to 142 °C.

On to `CCCN(C(=O)Cn1c(=O)n(C)c2cnc(-c3ccccc3)nc21)c1ccccc1` [Example 169], for which the melting point was 174 to 176 °C.

Regarding `CN(C(=O)Cn1c(=O)n(C)c2cnc(-c3cccnc3)nc21)c1ccccc1` [Example 171], the melting point is 216 to 217 °C.

For the origin of these results see patent US6372740B1, “2-aryl-8-oxodihydropurine derivative, process for the producing the same, medicinal compositions containing the same, and intermediates thereof” (Dainippon Pharmaceutical Co., Ltd., priority 1997, dated 2002).
